Laboratory results from EP0004590A1, “Penicillin and cephalosporin derivatives, processes for their preparation and their applications” (BAYER AG, priority 1978, dated 1979).

Legend:
E. coli Neumann = test: Minimum inhibitory concentration (MHK); type: cell-based
Klebsiella 6097 = test: Minimum inhibitory concentration (MHK); type: cell-based
Proteus rettg. = test: Minimum inhibitory concentration (MHK); type: cell-based
Provid. 12012 = test: Minimum inhibitory concentration (MHK); type: cell-based
Psdm. F 41 = test: Minimum inhibitory concentration (MHK); type: cell-based
E. coli 4322 = test: Minimum inhibitory concentration (MHK); type: cell-based
E. coli C 165 = test: Minimum inhibitory concentration (MHK); type: cell-based
Prot. vulg. 9023 = test: Minimum inhibitory concentration (MHK); type: cell-based
Serratia 16 001 = test: Minimum inhibitory concentration (MHK); type: cell-based
E.coli 183/58 = test: Minimum inhibitory concentration (MHK); type: cell-based
Klebs. 63 = test: Minimum inhibitory concentration (MHK); type: cell-based
Escherichia coli Neumann = test: Animal test with the white mouse, intraperitoneal infection, ED50 after 24 hours; type: in vivo, weiße Maus; details: sc; white mice strain CF1 infected intraperitoneally with Escherichia coli Neumann; subcutaneous; therapy 30 and 90 minutes after infection; dose at which 50 % of infected animals survive after 24 hours; read-out: ED50 nach 24 Stunden
Source text: Aus der folgenden Tabelle 1 geht die Wirkung einer der erfindungsgemäßen Verbindungen gegen eine Reihe von Bakterien im Tierversuch mit der weißen Maus hervor. Die weißen Mäuse vom Stamm CF1 wurden intraperitoneal mit der jeweils angegebenen Bakterienart infiziert.
Therapie: zweimalig : 30 und 90 Minuten nach der Infektion. Die ED50 ist die Dosis, bei der 50 % der infizierten Tiere nach 24 Stunden nocht überleben.

SMILES: CCN1C(=O)CCN(C(=O)N[C@@H](C(=O)N[C@@H]2C(=O)N3[C@@H]2SC(C)(C)[C@@H]3C(=O)O)c2ccccc2)C1=O [Beispiel 4]
- Wirksamkeit (MHK in E/ml) (E. coli Neumann): 4 E/ml
- Wirksamkeit (MHK in E/ml) (Klebsiella 6097): 16 E/ml
- Wirksamkeit (MHK in E/ml) (Proteus rettg.): 16 E/ml
- Wirksamkeit (MHK in E/ml) (Provid. 12012): 16 E/ml

SMILES: CC(=O)OCC1=C(C(=O)O)N2C(=O)[C@@H](NC(=O)[C@H](NC(=O)N3CCC(=O)N(C)C3=O)c3ccccc3)[C@H]2SC1 [Beispiel 3]
- Wirksamkeit (MHK in E/ml) (E. coli Neumann): 8-16 E/ml

SMILES: CC1(C)S[C@@H]2[C@H](NC(=O)[C@H](NC(=O)N3CCC(=O)N(C4CC4)C3=O)c3ccc(O)cc3)C(=O)N2[C@H]1C(=O)O [Beispiel 10]
- Wirksamkeit (MHK in E/ml) (Psdm. F 41): 64 E/ml
- Wirksamkeit (MHK in E/ml) (E. coli 4322): 16 E/ml

SMILES: CCN1C(=O)CCN(C(=O)N[C@@H](C(=O)N[C@@H]2C(=O)N3[C@@H]2SC(C)(C)[C@@H]3C(=O)O)c2ccc(O)cc2)C1=O [Beispiel 5]
- Wirksamkeit (MHK in E/ml) (E. coli C 165): 16 E/ml
- Wirksamkeit (MHK in E/ml) (Prot. vulg. 9023): 16 E/ml

SMILES: CN1C(=O)CCN(C(=O)N[C@@H](C(=O)N[C@@H]2C(=O)N3[C@@H]2SC(C)(C)[C@@H]3C(=O)O)c2ccc(O)cc2)C1=O [Beispiel 2]
- Wirksamkeit (MHK in E/ml) (Serratia 16 001): 16 E/ml

SMILES: CCCN1C(=O)CCN(C(=O)N[C@@H](C(=O)N[C@@H]2C(=O)N3[C@@H]2SC(C)(C)[C@@H]3C(=O)O)c2ccccc2)C1=O [Beispiel 6]
- Wirksamkeit (MHK in E/ml) (Klebsiella 6097): 16 E/ml
- Wirksamkeit (MHK in E/ml) (E.coli 183/58): 4 E/ml

SMILES: CN1C(=O)CCN(C(=O)N[C@@H](C(=O)N[C@@H]2C(=O)N3[C@@H]2SC(C)(C)[C@@H]3C(=O)O)c2ccccc2)C1=O [Beispiel 1]
- Wirksamkeit (MHK in E/ml) (E. coli Neumann): 4 E/ml

SMILES: CC1(C)S[C@@H]2[C@H](NC(=O)[C@H](NC(=O)N3CCC(=O)N(C4CC4)C3=O)c3ccccc3)C(=O)N2[C@H]1C(=O)O [Beispiel 9]
- Wirksamkeit (MHK in E/ml) (E. coli Neumann): 4 E/ml
- Wirksamkeit (MHK in E/ml) (Serratia 16 001): 16 E/ml
- Wirksamkeit (MHK in E/ml) (Klebs. 63): 8 - 16 E/ml
- ED50 (Escherichia coli Neumann): 300 mg/kg

SMILES: CCCN1C(=O)CCN(C(=O)N[C@@H](C(=O)N[C@@H]2C(=O)N3C(C(=O)O)=C(COC(C)=O)CS[C@H]23)c2ccccc2)C1=O [Beispiel 8]
- Wirksamkeit (MHK in E/ml) (E. coli Neumann): 4 E/ml
- Wirksamkeit (MHK in E/ml) (Prot. vulg. 9023): 8 - 16 E/ml

SMILES: CC(=O)OCC1=C(C(=O)O)N2C(=O)[C@@H](NC(=O)[C@H](NC(=O)N3CCC(=O)N(C4CC4)C3=O)c3ccccc3)[C@H]2SC1 [Beispiel 11]
- Wirksamkeit (MHK in E/ml) (E.coli 183/58): 16 E/ml
